Measurements reported in PubChem BioAssay (NCI).
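Protocol summary: plate cells (96-well), add compound at 5 concentrations, incubate 48 h, interpolate endpoints linearly. GI50: concentration for 50% inhibition of growth. TGI marks complete inhibition of growth.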

Legend:
Test in all cases: NCI anticancer screen, dose series, 48 h
[1] = tested on: HCC-2998 colon
[2] = tested on: NCI-H23 lung
[3] = tested on: SK-MEL-28 melanoma
[4] = tested on: K-562 leukemia
[5] = tested on: OVCAR-5 ovarian
[6] = tested on: SN12C renal
[7] = tested on: NCI-H522 lung
[8] = tested on: MALME-3M melanoma
[9] = tested on: CAKI-1 renal

Row | SMILES | TGI [1] [µM] | TGI [2] [µM] | TGI [3] [µM] | TGI [4] [µM] | TGI [5] [µM] | TGI [6] [µM] | TGI [7] [µM] | TGI [8] [µM] | GI50 [1] [µM] | GI50 [2] [µM] | GI50 [3] [µM] | GI50 [4] [µM] | GI50 [5] [µM] | GI50 [6] [µM] | GI50 [7] [µM] | GI50 [8] [µM] | TGI [9] [µM] | GI50 [9] [µM]
1 | COc1cc(CNc2nc3c(N)cc(C(F)(F)F)cc3nc2-c2ccccc2)cc(OC)c1OC | > 100 | > 100 | > 100 | > 100 | > 100 | > 100 | 78.5 | > 100 |  |  |  |  |  |  |  |  |  | 
2 | Cc1ccc(/C=C/c2c(C(=O)/C=C/c3ccccc3)c(C)nc3ccccc23)cc1 | 3.35 | 3.78 | 3.27 | 5.38 | 3.53 | 3.85 | 3.29 | 3.18 | 1.71 | 1.64 | 1.77 | 1.73 | 1.9 | 1.87 | 1.4 | 1.74 |  | 
3 | C=C(C)[C@@H]1CCC=C2CC[C@]3(C)[C@H](CC[C@@H]4[C@@]5(C)CCCNC(C)(C)[C@@H]5CC[C@]43C)[C@H]21 |  |  | 4.07 |  | 4.46 | 3.48 | 5.64 | 3.74 |  |  | 2.03 |  | 2.01 | 1.79 | 2.28 | 1.77 |  | 
4 | CC(C)C1CO[C@]2(C)CCC(=O)N12 (stereo partly drawn) |  | > 100 | > 100 | > 100 |  | > 100 | > 100 | > 100 |  |  |  |  |  |  |  |  | > 100 | 
5 | Cc1cc2c(c(C(N)=O)c1C)-c1cccc(F)c1C2=O | > 100 | > 100 | > 100 | > 100 | > 100 | > 100 | > 100 | > 100 |  |  |  |  |  |  |  |  |  | 
6 | O=c1cc(-c2ccccn2)[nH]c2cccc(F)c12 | > 100 | > 100 | > 100 | > 100 | > 100 | > 100 | > 100 |  |  |  |  |  |  |  |  |  |  | 
7 | O=c1cccccc1[O-].O=c1cccccc1[O-].O=c1cccccc1[O-].[Eu+3] | > 100 | > 100 | > 100 | > 100 | > 100 | > 100 | 54.8 | > 100 |  |  |  |  |  | 56.6 |  |  | > 100 | 
8 | Cc1c(C(=O)C/C(=N/NC(=O)c2ccccc2)C(=O)Nc2ccc(Cl)cc2)[n+](=O)c2ccccc2n1[O-] |  | 92.6 | > 100 | > 100 | > 100 | > 100 | > 100 | > 100 |  |  |  |  |  |  |  |  | > 100 | 
9 | CCCn1c(SCCSc2c3ccccc3c(-c3nc(F)nc(F)n3)n2CCC)c2ccccc2c1-c1nc(F)nc(F)n1 | > 100 | > 100 | > 100 | > 100 | > 100 | > 100 | > 100 | > 100 |  |  |  |  |  |  |  |  | > 100 | 
10 | CCC[CH2][Sn]([CH2]CCC)([O]C(=O)c1cc(OC)c(OC)cc1OC)[O][Sn]([CH2]CCC)([CH2]CCC)[O]C(=O)c1cc(OC)c(OC)cc1OC | 2.41 | 1.19 | 1.02 | 8.43 | 3.14 | 1.72 | 0.0556 | 0.977 | 1.1 | 0.313 | 0.297 | 0.0812 | 1.75 | 0.532 |  | 0.229 | 0.686 | 0.161
11 | C[N+]1=c2c3cccc4cccc(c(=O)n2CC1)c43 |  | 32.3 | 30.1 | 47.7 | 33.5 | 68.8 | 24.4 | 22.6 |  |  |  |  |  |  |  |  | > 100 | 
12 | N#C/C(=C1\SCC(=O)N1c1ccccc1)c1nc2ccccc2[nH]1 |  | > 100 | > 100 | > 100 | > 100 | > 100 | > 100 | > 100 |  |  |  |  |  |  |  |  | > 100 | 
13 | O=C1C2C(C(=O)N1c1ccccc1)C1c3ccccc3C2C2C(=O)N(c3ccccc3)C(=O)C21 (stereo not drawn) | 24.7 | > 100 | > 100 | > 100 | 99.5 | > 100 | 8.07 | 67.8 |  |  |  |  |  |  |  |  | > 100 | 
14 | O=C(/C=C(\O)C(=O)O)/C=C(\O)c1ccccc1 | > 100 | > 100 | > 1 | > 100 | > 100 | > 100 | > 1 | > 100 | > 100 | > 100 | > 1 | > 1 | > 100 | > 1 | > 1 | > 100 | > 100 | 
15 | CCOC(=O)NC(=O)c1cn(CCN2CCN(C(=O)CNC(=O)CNC(=O)Cn3cc(C(=O)NC(=O)OCC)c(=O)[nH]c3=O)CC2)c(=O)[nH]c1=O | > 100 | > 100 | > 100 | > 100 | > 100 | > 100 | > 100 | > 100 |  |  |  |  |  |  |  |  | > 100 | 
16 | CC(C)/C=C1\CCC(CN2CCOCC2)C1=O (stereo not drawn) | 36.5 | 33.9 | 32.2 | 9.06 | 39.4 | 36.5 | 3.8 | 31 |  |  |  |  |  |  |  |  | 8.93 | 
17 | C/C(CC(=O)Nc1cccc(Cl)c1C)=N\NC(N)=S | > 100 | > 100 | > 100 | > 100 | > 100 |  | > 100 | > 100 |  |  |  |  |  |  |  |  |  | 
18 | COC1C(OC(=O)c2ccc(C)[nH]2)C(O)C(Oc2ccc3c(O)c(NC(=O)c4c[nH]c(C(=O)Nc5c(O)c6ccc(OC7OC(C)(C)C(OC)C(OC(=O)c8ccc(C)[nH]8)C7O)c(C)c6oc5=O)c4C)c(=O)oc3c2C)OC1(C)C (stereo not drawn) | 7.26 | 3.84 | 2.25 | > 100 | 9.96 | 7.16 |  | 5.02 |  |  |  |  |  |  |  |  | 6.08 | 
19 | C#CC1(O)CCC2C3CCc4cc(Oc5nc(F)nc(-c6c7ccccc7c7n6CCS7)n5)ccc4C3CC[C@@]21C (stereo partly drawn) | 41.7 | 42.7 | 57.9 | > 100 | > 100 |  | 20.9 | > 100 |  |  |  |  |  |  |  |  | 73 | 
20 | [N-]=[N+]=NC(c1cn(C2CC(O)C(CO)O2)c(=O)[nH]c1=O)C(Cl)Br (stereo not drawn) | > 100 | > 100 | > 100 | > 100 |  | > 100 | > 100 | > 100 |  |  |  |  |  |  |  |  | > 100 | 
21 | COc1cc2c(cc1OC)C(C(=O)O)C(c1ccccc1)N(C)C2=O (stereo not drawn) | > 100 | > 100 | > 100 | > 100 | > 100 | > 100 | > 100 | > 100 |  |  |  |  |  |  |  |  | > 100 | 
22 | COc1cc2c(cc1OC)-c1ncc3c(OC)ccc(OC)c3c1C2 | > 100 |  | > 100 | 82 | > 100 | 58 | 31.8 |  | 22.6 |  | > 100 | 12.3 | 44 | 14.8 | 2.94 |  | > 100 | 14.4
23 | C=CCn1c(=S)sc2c(C(=O)OCC)c3c(C)cc(C)cn3c2c1=O | > 100 | > 100 | > 100 | > 100 | > 100 | > 100 | > 100 | > 100 |  |  |  |  |  |  |  |  | > 100 | 
24 | C/C(CC(=O)NCCc1ccccc1)=N\NS(=O)(=O)c1ccc(C)cc1 | > 100 | > 100 | > 100 | > 100 | > 100 |  | > 100 | > 100 |  |  |  |  |  |  |  |  |  | 
25 | CCO/C=C1\N=C(c2ccc(Cl)c(Cl)c2)OC1=O | > 100 | > 100 | > 100 | > 100 | > 100 | > 100 | > 100 | > 100 |  |  |  |  |  |  |  |  | > 100 | 
26 | ClC(Cl)=C(Cl)C1(Cl)CC1COCc1ccccc1 (stereo not drawn) | 81.2 | > 100 | > 100 | > 100 | > 100 | > 100 | 44.2 | 43.7 |  |  |  |  |  |  |  |  | > 100 | 
27 | COc1ccc(/C=C(/c2ccccc2)[N+](=O)[O-])c(OC)c1 | 3.4 | 4.76 | 3.03 | 38.2 | 3.74 | 3 | 4.02 | 3.3 | 1.92 | 1.93 | 1.5 | 0.494 | 1.92 | 1.47 | 1.56 | 1.58 | 2.64 | 1.23
28 | COC(=O)CCC(NC(=S)N/N=C(\C)c1ccc[nH]1)C(=O)OC (stereo not drawn) | > 100 | > 100 | > 100 | > 100 | > 100 | > 100 | > 100 | > 100 |  |  |  |  |  |  |  |  |  | 
29 | C=C1C(=O)O[C@H]2[C@H]1CC/C(COC(=O)CCCCCC(=O)OC/C1=C/CC[C@@]3(C)O[C@H]3[C@H]3OC(=O)C(=C)[C@@H]3CC1)=C\CC[C@@]1(C)O[C@@H]21 | 3.98 | 9.98 | 6.84 | 10.2 | 4.17 | 11.5 | 3.44 | 5.08 | 1.95 | 2.72 | 2.45 | 1.18 | 1.97 | 2.86 | 1.72 | 2.09 |  | 
30 | C=CC(=O)N1C/C(=C\c2ccc(Cl)c(Cl)c2)C(=O)/C(=C/c2ccc(Cl)c(Cl)c2)C1 | 0.446 | 0.438 | 1.5 | 0.28 | 1.02 | 0.302 | 0.302 |  |  |  |  |  |  |  |  |  | 1.17 | 
